In US6730703B2, “Dual inhibitors of cholesteryl ester and wax ester synthesis for sebaceous gland disorders” (Warner-Lambert Company, priority 2000, dated 2004):
Like-named read-outs stand apart in the source and are kept apart here.

Experiments:
[1] = molecular target: AFAT (acyl-Coenzyme A: fatty alcohol acyltransferase); experiment: Inhibition of wax ester (WE) synthesis in mouse preputial gland microsomes; conditions: for IC50: read-out: Inhibition of Wax Ester (WE) Synthesis IC50, mouse preputial microsome preparation, [14C]hexadecanol label, oleoyl coenzyme A
Method: (§1) a) The rats or mice are anesthetized with ether, and the PGs are removed and placed in a beaker containing wash buffer (ice cold).
(§2) b) As soon as possible, the PGs are homogenized in a Potter-Elvehjem homogenizer with 15 mL of homogenizing buffer. The homogenizer is kept in a small ice bath. Work the plunger until it reaches the bottom of the tube 10 times.
(§3) k) Add 1 mL of 0.2 M KPO4 buffer pH 7.4 to half of the bottles in an ice bath. Scrape the whole pellet loose with a teflon rod and transfer to a 15 mL homogenizer. Wash bottle with 1 mL of buffer and transfer to one of the bottles that has a pellet but no buffer. Homogenize gently by hand. Aliquot into Cryovials (Nalgene™) and store in liquid nitrogen. The microsomes remain active for at least 2 years.
(§4) m) Determine the protein concentration of the homogenate by the Lowry method. […] Desired protein concentration is 20 mg/mL rat or mouse PG microsomes.
(§5) C. [4-^14C]Cholesteryl or [(1-^14C]Hexadecanol. Evaporate the toluene from the vial. Re-suspend radiolabel in 0.1 mL 2-propanol.
(§6) D. Oleoyl Coenzyme A (1 mM in sucrose buffer). Dissolve 10.3 mg oleoyl coenzyme A (Sigma 0-7002) in 10 mL sucrose buffer. Note: Store at −10° C. Dilute 5-fold to 200 μM with sucrose buffer just prior to assay.
(§7) E. [^14C]Cholesteryl—Labeled Microsomes or [^14C]Hexadecanol—Labeled Microsomes. Dilute a vial of stock microsomes to 4 mg protein per milliliter with sucrose buffer. For every 1 mL of diluted microsome solution, use glass syringe (Hamilton, [sequence], 1702) and transfer 2.5 μL of radiolabel to diluted microsomes by submerging syringe needle in the microsome solution and swirling while ejecting syringe contents. Flush syringe once with microsome solution. Determine dpm in small aliquot of solution by liquid scintillation counting (LSC). Need approximately 4×10^6 dpm/mL in the microsome solution.
(§8) G. Test Compound Solutions. Test compounds are weighed to make either 1 mM or 4 mM stock solutions in dimethylsulfoxide (DMSO). These solutions are used to prepare DMSO solutions containing 40 times the concentration of compound to be tested. These solutions may be prepared 24 hours prior to the assay and stored at room temperature.
(§9) a) Duplicate samples are prepared by adding 5 μL of test compound solution to each of two assay tubes. Controls and blanks receive 5 μL of DMSO. […]
(§10) h) Transfer 40 μL of the acidified solution to the pre-absorbent area of Whatman LK6D silica gel TLC plates, which are then dried on a hot plate for 5 minutes and developed in trimethylpentane/diethyl ether/acetic acid (75:25:2). The bands containing radiolabel are detected and quantitated by phosphorimaging with a Molecular Dynamics phosphorimager.
(§11) TLC will resolve free alcohol from its ester. The relative amount of radioactivity in each of those bands is determined by phosphorimaging. […]

[2] = test system: ACAT (acyl-Coenzyme A: cholesteryl acyltransferase)
Method: as §5
D. Oleoyl Coenzyme A (1 mM in sucrose buffer). […] Note: Store at −10° C. Dilute 5-fold to 200 μM with sucrose buffer just prior to assay.
E. [^14C]Cholesteryl—Labeled Microsomes or [^14C]Hexadecanol—Labeled Microsomes. Dilute a vial of stock microsomes to 4 mg protein per milliliter with sucrose buffer. […] Flush syringe once with microsome solution. Determine dpm in small aliquot of solution by liquid scintillation counting (LSC). Need approximately 4×10^6 dpm/mL in the microsome solution.
G. Test Compound Solutions. Test compounds are weighed to make either 1 mM or 4 mM stock solutions in dimethylsulfoxide (DMSO). These solutions are used to prepare DMSO solutions containing 40 times the concentration of compound to be tested. […]
as §10, §11

[3] = test system: AFAT (acyl-Coenzyme A: fatty alcohol acyltransferase)
Method: as §1, §2, §3, §4, §5, §6, §7, §8, §9, §10, §11

IC50 [1] [µM]	Inhibition of liver ACAT (in words) ([2]; inhibition curves of FIG. 1, printed as rat liver ACAT)	IC50 ([2]; read-out: Inhibition of Cholesteryl Ester (CE) Synthesis IC50, mouse liver microsome preparation, [14C]cholesteryl label, oleoyl coenzyme A) [µM]	Inhibition of WE synthesis in mouse preputial gland microsomes (in words) [3]	Inhibition of WE synthesis in mouse preputial gland microsomes (in words) ([1]; inhibition curves of FIG. 1, 0.01 μM to 100 μM)	SMILES
13.9	potent inhibitors of rat liver ACAT	0.09	unexpectedly inhibits WE synthesis	–	CC(C)c1cc(C(C)C)c(CC(=O)NS(=O)(=O)Oc2c(C(C)C)cccc2C(C)C)c(C(C)C)c1 [Compound 1, [(2,4,6-triisopropyl-phenyl)-acetyl]-sulfamic acid 2,6-diisopropyl-phenyl ester]
> 100	–	–	–	no inhibition of WE synthesis	CCCCCCCCCCC(C)(C)C(=O)Nc1c(OC)cc(OC)cc1OC [Compound 2, 2,2-dimethyl-N-(2,4,6-trimethoxyphenyl)-dodecanamide]
